Assay results published in US6479454B1, “Antimicrobial compositions and methods containing hydrogen peroxide and octyl amine oxide” (Ecolab Inc., priority 2000, dated 2002).

Experiments:
Pseudomonas aeruginosa = assay: Minimal Bactericidal Concentration (MBC), Ecolab S.O.P. Method MS009 (A.O.A.C. Method 960.09); type: cell-based
Experimental: The term Minimal Bactericidal Concentration is used in the present invention to mean a 5 log reduction in microbe count.
An experiment was conducted to determine the Minimal Bactericidal Concentration (MBC) of octyldimethylamine oxide alone, hydrogen peroxide alone and two mixtures of octyldimethylamine oxide with hydrogen peroxide against Pseudomonas aeruginosa. Experiments were conducted using standard bacteriological techniques, specifically Ecolab Microbiological Services S.O.P. Method MS009 (reference to A.O.A.C. Method 960.09). […] The 50%/50% relative composition of amine oxide:hydrogen peroxide has a pH of 7.4 and an oxidation potential of 250 mV when diluted to 1.7% total oxidizer.

Salmonella javiana = assay: Antimicrobial activity (log reduction) on a tomato surface; type: cell-based
Experimental: A second experiment was conducted to determine the synergistic effects of mixing an amine oxide, peracetic acid and hydrogen peroxide. Combinations of peracetic acid and hydrogen peroxide were measured in the presence and absence of a tetradecyl-dimethylamine oxide for antimicrobial activity against Salmonella javiana. Testing was performed on a tomato surface.

## CCCCCCCC[N+](C)(C)[O-] [100/0, octyldimethylamine oxide]
Pseudomonas aeruginosa; MBC = 5 log reduction
  concentration required to obtain MBC: greater than 2000 parts per million
Pseudomonas aeruginosa; Pseudomonas aeruginosa, MBC = 5 log reduction in microbe count, expressed as octyldimethylamine oxide concentration, read-out: MBC ppm amine oxide
  MBC: > 2000 µg/mL

## CCCCCCCCCCCCCC[N+](C)(C)[O-] [Amine Oxide Alone, tetradecyl-dimethylamine oxide]
Salmonella javiana; ppm of each component as given in the table row
  Log Reduction (S. Javiana): <0.2
Salmonella javiana; text summary of Table II
  antimicrobial activity against S. javiana (in words): fairly ineffective

## OO [0/100, hydrogen peroxide]
Pseudomonas aeruginosa; MBC = 5 log reduction in microbe count, expressed as hydrogen peroxide concentration
  MBC ppm peroxide: >2,000 ppm
